The record followed here is PubChem BioAssay AID256 (DTP/NCI, 2004).

Several values for one entry are separate records, joined by “and”; a condition that tells them apart may be missing. Identical values can stand only once. Toxic doses and inconclusive results are not listed.

The subject of this test is CD2F1 mice, L1210 leukemia ip, survival T/C. Briefly: NCI In Vivo Anticancer Drug Screen. Data for tumor model L1210 Leukemia (intraperitoneal) in CD2F1 (CDF1) mice. To be noted: higher = longer survival. The method in brief: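 Read-out first: treated-group measurement over vehicle-control measurement, expressed as a ratio. Animals bore a transplanted tumor line and were dosed with compound or vehicle.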

In the case of `CC(O)C[As](=O)(O)c1ccc(Cl)cc1` (configuration not stated), the T/C (endpoint: mean survival time, dose: 6.25 mg/kg/injection, schedule: Q04DX003 (ip), vehicle: saline with Tween-80) is 95 % of control; the T/C (endpoint: mean survival time, dose: 12.5 mg/kg/injection, schedule: Q04DX003 (ip), vehicle: saline with Tween-80) was 107 % of control; the T/C (endpoint: mean survival time, dose: 25.0 mg/kg/injection, schedule: Q04DX003 (ip), vehicle: saline with Tween-80) is 107 % of control.

Consider `COC(=O)CC(O)(CCCC(C)(C)O)C(=O)OC1C(OC)=CC23CCCN2CCc2cc4c(cc2C13)OCO4` (configuration not stated) (tested in a mixture with another compound), for which the T/C was 112 % of control (endpoint: mean survival time, dose: 0.25 mg/kg/injection, schedule: Q01DX009 (ip), vehicle: saline with Tween-80); 115 % of control (endpoint: mean survival time, dose: 0.5 mg/kg/injection, schedule: Q01DX009 (ip), vehicle: saline with Tween-80); 115 % of control (endpoint: mean survival time, dose: 1.0 mg/kg/injection, schedule: Q01DX009 (ip), vehicle: saline with Tween-80); 124 % of control (endpoint: mean survival time, dose: 2.0 mg/kg/injection, schedule: Q01DX009 (ip), vehicle: saline with Tween-80).

Turning to `O=C(O)Cc1cccc2c(=O)cc(-c3ccccc3)oc12`, the T/C is, setting by setting: (endpoint: median survival time, dose: 12.5 mg/kg/injection, schedule: Q01DX009 (ip), vehicle: suspension in saline) 113 % of control and 109 % of control; (endpoint: median survival time, dose: 25.0 mg/kg/injection, schedule: Q01DX009 (ip), vehicle: suspension in saline) 113 % of control and 105 % of control; (endpoint: median survival time, dose: 30.0 mg/kg/injection, schedule: Q01DX009 (ip), vehicle: saline with Tween-80) 112 % of control; (endpoint: median survival time, dose: 30.0 mg/kg/injection, schedule: Q01DX009 (ip), vehicle: sodium bicarbonate) 100 % of control; (endpoint: median survival time, dose: 44.0 mg/kg/injection, schedule: Q01DX009 (ip), vehicle: saline with Tween-80) 123 % of control; (endpoint: median survival time, dose: 44.0 mg/kg/injection, schedule: Q01DX009 (ip), vehicle: sodium bicarbonate) 113 % of control. Also, the T/C reads like this: (endpoint: median survival time, dose: 45.0 mg/kg/injection, schedule: Q01DX009 (ip), vehicle: sodium bicarbonate) 107 % of control; (endpoint: median survival time, dose: 50.0 mg/kg/injection, schedule: Q01DX009 (ip), vehicle: suspension in saline) 116 % of control; (endpoint: median survival time, dose: 67.0 mg/kg/injection, schedule: Q01DX001 (ip), vehicle: sodium bicarbonate) 101 % of control; (endpoint: median survival time, dose: 67.0 mg/kg/injection, schedule: Q01DX009 (ip), vehicle: sodium bicarbonate) 113 % of control and 112 % of control; (endpoint: median survival time, dose: 100.0 mg/kg/injection, schedule: Q01DX001 (ip), vehicle: sodium bicarbonate) 108 % of control; (endpoint: median survival time, dose: 100.0 mg/kg/injection, schedule: Q01DX009 (ip), vehicle: saline with Tween-80) 124 % of control. Besides, the T/C (endpoint: median survival time, dose: 100.0 mg/kg/injection, schedule: Q01DX009 (ip), vehicle: sodium bicarbonate) is 119 % of control and 124 % of control; the T/C (endpoint: median survival time, dose: 100.0 mg/kg/injection, schedule: Q01DX009 (ip), vehicle: suspension in saline) is 113 % of control; the T/C (endpoint: median survival time, dose: 150.0 mg/kg/injection, schedule: Q01DX001 (ip), vehicle: sodium bicarbonate) is 112 % of control; the T/C (endpoint: median survival time, dose: 150.0 mg/kg/injection, schedule: Q01DX009 (ip), vehicle: saline with Tween-80) was 108 % of control; the T/C (endpoint: median survival time, dose: 175.0 mg/kg/injection, schedule: Q01DX009 (ip), vehicle: sodium bicarbonate) was 156 % of control; the T/C (endpoint: median survival time, dose: 200.0 mg/kg/injection, schedule: Q01DX009 (ip), vehicle: suspension in saline) was 103 % of control. The T/C (endpoint: median survival time, dose: 223.0 mg/kg/injection, schedule: Q01DX001 (ip), vehicle: sodium bicarbonate) is 108 % of control and the T/C (endpoint: median survival time, dose: 333.0 mg/kg/injection, schedule: Q01DX001 (ip), vehicle: sodium bicarbonate) is 121 % of control.

As for `O=C(c1ccccc1)C(O)c1ccccc1` (configuration not stated), the T/C is, setting by setting: (endpoint: mean survival time, dose: 100.0 mg/kg/injection, schedule: Q04DX003 (ip), vehicle: saline with Tween-80) 90 % of control; (endpoint: mean survival time, dose: 200.0 mg/kg/injection, schedule: Q04DX003 (ip), vehicle: saline with Tween-80) 96 % of control; (endpoint: mean survival time, dose: 400.0 mg/kg/injection, schedule: Q04DX003 (ip), vehicle: saline with Tween-80) 97 % of control.

As to `C[N+](C)(C)C.[Cl][Fe]([Cl])([Cl])[Cl]`, the T/C is, setting by setting: (endpoint: mean survival time, dose: 3.13 mg/kg/injection, schedule: Q01DX009 (ip), vehicle: saline) 94 % of control; (endpoint: mean survival time, dose: 6.25 mg/kg/injection, schedule: Q01DX009 (ip), vehicle: saline) 97 % of control; (endpoint: mean survival time, dose: 12.5 mg/kg/injection, schedule: Q01DX009 (ip), vehicle: saline) 91 % of control.

With `[N-]=[N+]=NCC1OC(OC2(CO)OC(CN=[N+]=[N-])C(O)C2O)C(O)C(O)C1O` (configuration not stated), the T/C by setting is: (endpoint: mean survival time, dose: 50.0 mg/kg/injection, schedule: Q01DX009 (ip), vehicle: saline) 102 % of control; (endpoint: mean survival time, dose: 100.0 mg/kg/injection, schedule: Q01DX009 (ip), vehicle: saline) 102 % of control.

Consider `CC1C(=O)CC(C)(C)C=CC1C1C=CC(C)(C)CC(=O)C1C` (configuration not stated), for which the T/C was 97 % of control (endpoint: mean survival time, dose: 75.0 mg/kg/injection, schedule: Q01DX001 (ip), vehicle: other); 97 % of control (endpoint: mean survival time, dose: 150.0 mg/kg/injection, schedule: Q01DX001 (ip), vehicle: other); 96 % of control (endpoint: mean survival time, dose: 300.0 mg/kg/injection, schedule: Q01DX001 (ip), vehicle: other).

Consider `O=c1oc(-c2cccc(Cl)c2)nc2cc(Cl)ccc12`, for which the T/C reads like this: (endpoint: mean survival time, dose: 100.0 mg/kg/injection, schedule: Q01DX001 (ip), vehicle: Klucel (hydroxypropylcellulose) (HPC)) 98 % of control; (endpoint: mean survival time, dose: 200.0 mg/kg/injection, schedule: Q01DX001 (ip), vehicle: Klucel (hydroxypropylcellulose) (HPC)) 95 % of control; (endpoint: mean survival time, dose: 400.0 mg/kg/injection, schedule: Q01DX001 (ip), vehicle: Klucel (hydroxypropylcellulose) (HPC)) 94 % of control.

In the case of `COc1ccc(C2OC23CC(C)(C)c2ccccc2C3=O)cc1` (configuration not stated), the T/C (endpoint: mean survival time, dose: 100.0 mg/kg/injection, schedule: Q01DX009 (ip), vehicle: other) was 107 % of control; the T/C (endpoint: mean survival time, dose: 200.0 mg/kg/injection, schedule: Q01DX009 (ip), vehicle: other) was 100 % of control; the T/C (endpoint: mean survival time, dose: 400.0 mg/kg/injection, schedule: Q01DX009 (ip), vehicle: other) is 91 % of control.

Turning to `O=CC(O)CO` (configuration not stated), the T/C is, setting by setting: (endpoint: median survival time, dose: 129.6 mg/kg/injection, schedule: Q ##X015 (sc), vehicle: saline) 109 % of control; (endpoint: median survival time, dose: 129.6 mg/kg/injection, schedule: Q## X015 (sc), vehicle: saline) 112 % of control; (endpoint: median survival time, dose: 216.0 mg/kg/injection, schedule: Q ##X015 (sc), vehicle: saline) 108 % of control; (endpoint: median survival time, dose: 216.0 mg/kg/injection, schedule: Q## X015 (sc), vehicle: saline) 112 % of control; (endpoint: median survival time, dose: 360.0 mg/kg/injection, schedule: Q ##X015 (sc), vehicle: saline) 119 % of control; (endpoint: median survival time, dose: 360.0 mg/kg/injection, schedule: Q## X015 (sc), vehicle: saline) 118 % of control. In addition, the T/C is, setting by setting: (endpoint: median survival time, dose: 600.0 mg/kg/injection, schedule: Q ##X015 (sc), vehicle: saline) 110 % of control; (endpoint: median survival time, dose: 600.0 mg/kg/injection, schedule: Q## X015 (sc), vehicle: saline) 112 % of control.

In the case of `CC(=O)NNC(=O)CC(O)(c1ccccc1)c1ccccc1`, the T/C was 113 % of control (endpoint: mean survival time, dose: 100.0 mg/kg/injection, schedule: Q04DX002 (ip), vehicle: saline with Tween-80) and 95 % of control (endpoint: mean survival time, dose: 200.0 mg/kg/injection, schedule: Q04DX002 (ip), vehicle: saline with Tween-80).

As for `CC12CCC3(CO3)CC1CCC1C2CCC2(C)C1CCC21CO1` (configuration not stated), the T/C reads like this: (endpoint: mean survival time, dose: 75.0 mg/kg/injection, schedule: Q01DX001 (ip), vehicle: saline with Tween-80) 104 % of control; (endpoint: mean survival time, dose: 150.0 mg/kg/injection, schedule: Q01DX001 (ip), vehicle: saline with Tween-80) 106 % of control; (endpoint: mean survival time, dose: 300.0 mg/kg/injection, schedule: Q01DX001 (ip), vehicle: saline with Tween-80) 113 % of control.
